Columns and labels:
Assay in all cases: biochemical
Assay type in all cases: biochemical
[1] = target: T1, 363 human kinases (including Aurora A/B/C) (Homo sapiens, UniProt Q9NRM7); conditions: LATS2; for remaining activity at 0.1 µM: 100 nM; for remaining activity at 0.1 µM / remaining activity at 0.5 µM: read-out: % Enzyme Activity (relative to DMSO controls)
T1 sequence (Q9NRM7 1-1088): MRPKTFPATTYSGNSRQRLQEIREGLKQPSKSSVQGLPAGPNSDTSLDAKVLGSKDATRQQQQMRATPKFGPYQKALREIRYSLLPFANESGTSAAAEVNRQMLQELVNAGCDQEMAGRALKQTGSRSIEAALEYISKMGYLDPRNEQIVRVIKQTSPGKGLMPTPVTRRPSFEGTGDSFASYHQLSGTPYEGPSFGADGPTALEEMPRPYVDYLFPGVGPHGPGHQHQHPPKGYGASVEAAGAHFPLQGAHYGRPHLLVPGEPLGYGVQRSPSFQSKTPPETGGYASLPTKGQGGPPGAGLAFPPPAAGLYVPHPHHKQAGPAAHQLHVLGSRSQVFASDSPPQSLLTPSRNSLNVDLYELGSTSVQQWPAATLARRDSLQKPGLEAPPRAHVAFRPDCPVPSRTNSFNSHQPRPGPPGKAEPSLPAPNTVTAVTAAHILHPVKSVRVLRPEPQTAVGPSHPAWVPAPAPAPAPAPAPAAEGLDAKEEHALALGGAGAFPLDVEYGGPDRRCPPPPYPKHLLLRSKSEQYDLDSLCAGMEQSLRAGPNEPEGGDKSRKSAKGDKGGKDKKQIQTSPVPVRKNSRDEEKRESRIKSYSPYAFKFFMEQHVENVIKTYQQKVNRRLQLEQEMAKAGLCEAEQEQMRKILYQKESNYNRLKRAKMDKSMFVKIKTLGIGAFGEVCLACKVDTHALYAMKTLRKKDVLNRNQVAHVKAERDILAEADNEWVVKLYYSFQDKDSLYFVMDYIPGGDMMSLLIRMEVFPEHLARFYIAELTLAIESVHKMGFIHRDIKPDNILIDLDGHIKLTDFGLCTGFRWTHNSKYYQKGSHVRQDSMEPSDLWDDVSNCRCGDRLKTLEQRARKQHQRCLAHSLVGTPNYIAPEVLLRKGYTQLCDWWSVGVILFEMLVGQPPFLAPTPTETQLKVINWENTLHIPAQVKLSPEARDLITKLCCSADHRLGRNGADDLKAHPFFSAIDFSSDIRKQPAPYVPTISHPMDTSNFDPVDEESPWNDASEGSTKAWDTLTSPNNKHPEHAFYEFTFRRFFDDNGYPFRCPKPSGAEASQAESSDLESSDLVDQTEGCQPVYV
Text: (§1) However, the Aurora A/B selectivity ratios derived from our in vitro and in vivo data can be compared to prioritize inhibitors.

[2] = target: 363 human kinases (including Aurora A/B/C) (Homo sapiens, UniProt Q9H4A3); conditions: WNK1; for remaining activity at 0.1 µM: 100 nM; for remaining activity at 0.1 µM / remaining activity at 0.5 µM: read-out: % Enzyme Activity (relative to DMSO controls)
363 human kinases (including Aurora A/B/C) (Homo sapiens, UniProt Q9H4A3), sequence (Q9H4A3 whole entry): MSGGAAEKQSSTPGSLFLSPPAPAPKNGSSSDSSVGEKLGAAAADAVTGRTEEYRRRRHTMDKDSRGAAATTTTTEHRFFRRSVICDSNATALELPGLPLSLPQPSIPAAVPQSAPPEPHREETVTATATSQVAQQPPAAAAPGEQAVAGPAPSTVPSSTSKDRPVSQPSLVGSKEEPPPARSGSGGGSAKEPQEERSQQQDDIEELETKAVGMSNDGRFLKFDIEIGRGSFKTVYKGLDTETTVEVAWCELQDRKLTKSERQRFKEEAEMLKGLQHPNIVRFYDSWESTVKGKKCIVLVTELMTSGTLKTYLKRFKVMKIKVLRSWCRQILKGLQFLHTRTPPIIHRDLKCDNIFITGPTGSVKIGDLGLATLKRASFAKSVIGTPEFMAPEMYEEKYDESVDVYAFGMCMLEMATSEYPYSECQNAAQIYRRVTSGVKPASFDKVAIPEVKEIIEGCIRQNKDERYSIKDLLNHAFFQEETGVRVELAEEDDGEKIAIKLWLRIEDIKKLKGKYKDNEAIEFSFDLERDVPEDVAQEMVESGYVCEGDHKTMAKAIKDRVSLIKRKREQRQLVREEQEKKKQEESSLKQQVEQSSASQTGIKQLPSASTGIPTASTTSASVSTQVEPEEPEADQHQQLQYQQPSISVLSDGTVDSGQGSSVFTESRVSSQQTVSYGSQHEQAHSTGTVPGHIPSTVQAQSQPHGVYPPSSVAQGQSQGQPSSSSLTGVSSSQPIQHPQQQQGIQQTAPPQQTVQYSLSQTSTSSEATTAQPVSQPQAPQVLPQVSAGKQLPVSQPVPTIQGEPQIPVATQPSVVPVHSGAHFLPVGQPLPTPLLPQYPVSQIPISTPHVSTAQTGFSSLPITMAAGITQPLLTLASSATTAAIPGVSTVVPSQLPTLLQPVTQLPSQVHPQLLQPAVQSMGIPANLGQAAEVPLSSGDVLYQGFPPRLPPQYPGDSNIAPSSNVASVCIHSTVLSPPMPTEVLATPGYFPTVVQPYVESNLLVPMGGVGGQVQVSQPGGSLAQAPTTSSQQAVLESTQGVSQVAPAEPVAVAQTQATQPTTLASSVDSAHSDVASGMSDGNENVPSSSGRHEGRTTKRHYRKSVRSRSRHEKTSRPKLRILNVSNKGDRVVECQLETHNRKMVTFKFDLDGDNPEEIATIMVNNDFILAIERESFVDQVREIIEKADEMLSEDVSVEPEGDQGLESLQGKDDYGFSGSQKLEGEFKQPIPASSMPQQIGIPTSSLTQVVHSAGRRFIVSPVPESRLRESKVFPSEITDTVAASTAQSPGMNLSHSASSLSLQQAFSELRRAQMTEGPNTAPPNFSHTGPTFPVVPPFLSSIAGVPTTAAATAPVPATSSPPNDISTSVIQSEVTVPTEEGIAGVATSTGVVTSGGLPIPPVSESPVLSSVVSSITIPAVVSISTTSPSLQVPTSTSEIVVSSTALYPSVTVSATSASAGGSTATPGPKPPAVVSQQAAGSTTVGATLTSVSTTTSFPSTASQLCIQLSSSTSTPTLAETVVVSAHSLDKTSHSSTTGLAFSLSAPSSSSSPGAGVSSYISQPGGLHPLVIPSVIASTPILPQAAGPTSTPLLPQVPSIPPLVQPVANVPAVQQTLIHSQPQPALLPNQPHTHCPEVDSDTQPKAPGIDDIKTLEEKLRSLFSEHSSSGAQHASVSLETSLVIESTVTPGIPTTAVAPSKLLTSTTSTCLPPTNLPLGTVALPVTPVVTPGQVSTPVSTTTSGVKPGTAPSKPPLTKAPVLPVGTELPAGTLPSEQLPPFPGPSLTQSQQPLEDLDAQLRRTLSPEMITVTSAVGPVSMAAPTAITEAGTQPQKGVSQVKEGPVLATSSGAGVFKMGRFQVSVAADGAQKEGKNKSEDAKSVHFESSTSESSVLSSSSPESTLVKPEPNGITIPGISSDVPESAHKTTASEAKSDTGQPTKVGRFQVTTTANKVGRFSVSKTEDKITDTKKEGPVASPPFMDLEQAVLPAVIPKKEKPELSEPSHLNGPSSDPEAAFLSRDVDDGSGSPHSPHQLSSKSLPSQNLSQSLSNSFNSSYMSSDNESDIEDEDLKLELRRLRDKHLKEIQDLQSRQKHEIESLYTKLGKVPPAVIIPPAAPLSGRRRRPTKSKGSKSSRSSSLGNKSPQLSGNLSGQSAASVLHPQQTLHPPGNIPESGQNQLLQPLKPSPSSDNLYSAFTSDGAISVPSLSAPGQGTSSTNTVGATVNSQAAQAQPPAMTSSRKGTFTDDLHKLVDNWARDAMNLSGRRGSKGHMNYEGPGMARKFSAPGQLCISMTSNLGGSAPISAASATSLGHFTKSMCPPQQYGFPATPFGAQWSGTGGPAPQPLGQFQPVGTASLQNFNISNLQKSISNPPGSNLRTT
Text: as §1

[3] = target: 363 human kinases (including Aurora A/B/C) (Homo sapiens, UniProt P37173); conditions: TGFBR2; for remaining activity at 0.1 µM: 100 nM; for remaining activity at 0.1 µM / remaining activity at 0.5 µM: read-out: % Enzyme Activity (relative to DMSO controls)
363 human kinases (including Aurora A/B/C) (Homo sapiens, UniProt P37173), sequence (P37173 23-567): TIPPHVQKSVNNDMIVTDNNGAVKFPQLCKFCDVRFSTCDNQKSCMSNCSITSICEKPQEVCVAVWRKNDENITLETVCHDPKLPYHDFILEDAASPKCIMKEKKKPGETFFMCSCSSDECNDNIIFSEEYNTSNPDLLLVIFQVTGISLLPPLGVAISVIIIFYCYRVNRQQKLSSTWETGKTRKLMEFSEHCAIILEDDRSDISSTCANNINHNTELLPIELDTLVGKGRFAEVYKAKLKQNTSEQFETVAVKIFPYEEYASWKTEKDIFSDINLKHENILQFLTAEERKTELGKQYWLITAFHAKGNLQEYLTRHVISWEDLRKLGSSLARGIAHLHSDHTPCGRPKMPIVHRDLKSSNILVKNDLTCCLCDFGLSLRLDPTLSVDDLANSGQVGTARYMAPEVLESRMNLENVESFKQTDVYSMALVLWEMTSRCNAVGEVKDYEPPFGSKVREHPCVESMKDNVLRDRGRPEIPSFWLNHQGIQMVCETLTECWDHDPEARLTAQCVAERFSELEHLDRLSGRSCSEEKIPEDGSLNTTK
Text: as §1

[4] = target: 363 human kinases (including Aurora A/B/C) (Homo sapiens, UniProt P27361); conditions: ERK1, [ATP] 100 µM; for remaining activity at 0.1 µM: 100 nM; for remaining activity at 0.1 µM / remaining activity at 0.5 µM: read-out: % Enzyme Activity (relative to DMSO controls)
363 human kinases (including Aurora A/B/C) (Homo sapiens, UniProt P27361), sequence (P27361 whole entry): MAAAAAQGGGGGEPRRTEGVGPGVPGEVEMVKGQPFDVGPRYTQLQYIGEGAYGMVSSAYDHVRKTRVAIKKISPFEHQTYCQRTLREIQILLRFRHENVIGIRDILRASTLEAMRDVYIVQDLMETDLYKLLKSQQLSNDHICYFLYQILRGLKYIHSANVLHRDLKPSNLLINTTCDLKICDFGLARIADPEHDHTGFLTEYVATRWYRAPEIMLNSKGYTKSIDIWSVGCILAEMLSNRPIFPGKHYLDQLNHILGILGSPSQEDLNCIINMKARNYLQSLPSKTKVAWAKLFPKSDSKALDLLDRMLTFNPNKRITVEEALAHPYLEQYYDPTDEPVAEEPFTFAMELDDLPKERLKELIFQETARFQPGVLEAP
Text: as §1

[5] = target: T2, 363 human kinases (including Aurora A/B/C) (Homo sapiens, UniProt O95382); conditions: MEKK6; for remaining activity at 0.1 µM: 100 nM; for remaining activity at 0.1 µM / remaining activity at 0.5 µM: read-out: % Enzyme Activity (relative to DMSO controls)
T2 sequence (O95382 1-1288): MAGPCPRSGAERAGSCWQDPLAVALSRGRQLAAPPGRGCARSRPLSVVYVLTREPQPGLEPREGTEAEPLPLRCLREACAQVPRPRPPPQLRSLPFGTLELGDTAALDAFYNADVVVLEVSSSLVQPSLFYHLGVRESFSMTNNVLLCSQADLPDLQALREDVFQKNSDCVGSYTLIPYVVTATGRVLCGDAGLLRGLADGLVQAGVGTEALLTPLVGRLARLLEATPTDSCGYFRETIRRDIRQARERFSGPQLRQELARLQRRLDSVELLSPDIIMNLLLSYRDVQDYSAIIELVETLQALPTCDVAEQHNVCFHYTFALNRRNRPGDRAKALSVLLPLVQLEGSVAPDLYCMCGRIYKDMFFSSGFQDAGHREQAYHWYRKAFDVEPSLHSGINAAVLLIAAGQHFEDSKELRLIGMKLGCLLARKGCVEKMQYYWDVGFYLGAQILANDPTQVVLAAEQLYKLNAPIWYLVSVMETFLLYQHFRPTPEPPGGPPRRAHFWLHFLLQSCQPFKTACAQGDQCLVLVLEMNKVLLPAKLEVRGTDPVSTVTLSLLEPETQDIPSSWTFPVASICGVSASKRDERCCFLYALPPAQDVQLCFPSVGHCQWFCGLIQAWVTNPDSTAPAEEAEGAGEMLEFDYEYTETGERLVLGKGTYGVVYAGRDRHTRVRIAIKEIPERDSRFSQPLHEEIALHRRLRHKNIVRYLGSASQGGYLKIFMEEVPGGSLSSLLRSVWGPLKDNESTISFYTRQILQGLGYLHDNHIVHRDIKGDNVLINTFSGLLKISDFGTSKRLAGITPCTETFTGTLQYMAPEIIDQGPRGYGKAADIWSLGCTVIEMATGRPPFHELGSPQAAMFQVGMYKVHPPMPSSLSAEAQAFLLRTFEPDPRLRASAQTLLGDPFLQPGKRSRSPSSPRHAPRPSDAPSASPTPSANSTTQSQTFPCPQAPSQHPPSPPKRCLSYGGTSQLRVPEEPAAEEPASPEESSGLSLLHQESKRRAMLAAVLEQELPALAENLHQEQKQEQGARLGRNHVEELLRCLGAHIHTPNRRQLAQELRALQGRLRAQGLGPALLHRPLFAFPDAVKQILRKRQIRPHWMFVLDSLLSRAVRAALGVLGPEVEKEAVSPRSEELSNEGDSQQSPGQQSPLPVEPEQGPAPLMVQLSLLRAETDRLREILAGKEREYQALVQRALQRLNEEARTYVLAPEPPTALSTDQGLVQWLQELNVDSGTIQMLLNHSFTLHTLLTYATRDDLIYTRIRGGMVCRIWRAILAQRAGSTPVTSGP
Text: as §1

[6] = target: 363 human kinases (including Aurora A/B/C) (Homo sapiens, UniProt Q9HC98); conditions: NEK6; for remaining activity at 0.1 µM: 100 nM; for remaining activity at 0.1 µM / remaining activity at 0.5 µM: read-out: % Enzyme Activity (relative to DMSO controls)
363 human kinases (including Aurora A/B/C) (Homo sapiens, UniProt Q9HC98), sequence (Q9HC98 whole entry): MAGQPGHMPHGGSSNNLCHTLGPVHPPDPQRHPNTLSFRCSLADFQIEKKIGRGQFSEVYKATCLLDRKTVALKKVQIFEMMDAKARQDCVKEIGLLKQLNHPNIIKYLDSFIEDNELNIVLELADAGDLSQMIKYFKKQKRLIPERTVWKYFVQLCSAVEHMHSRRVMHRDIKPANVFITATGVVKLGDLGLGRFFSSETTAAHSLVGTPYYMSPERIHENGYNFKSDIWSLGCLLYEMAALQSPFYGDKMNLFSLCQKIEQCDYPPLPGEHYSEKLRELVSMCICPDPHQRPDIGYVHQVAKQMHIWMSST
Text: as §1

[7] = target: 363 human kinases (including Aurora A/B/C) (Homo sapiens, UniProt Q16512); conditions: PKN1/PRK1; for remaining activity at 0.1 µM: 100 nM; for remaining activity at 0.1 µM / remaining activity at 0.5 µM: read-out: % Enzyme Activity (relative to DMSO controls)
363 human kinases (including Aurora A/B/C) (Homo sapiens, UniProt Q16512), sequence (Q16512 whole entry): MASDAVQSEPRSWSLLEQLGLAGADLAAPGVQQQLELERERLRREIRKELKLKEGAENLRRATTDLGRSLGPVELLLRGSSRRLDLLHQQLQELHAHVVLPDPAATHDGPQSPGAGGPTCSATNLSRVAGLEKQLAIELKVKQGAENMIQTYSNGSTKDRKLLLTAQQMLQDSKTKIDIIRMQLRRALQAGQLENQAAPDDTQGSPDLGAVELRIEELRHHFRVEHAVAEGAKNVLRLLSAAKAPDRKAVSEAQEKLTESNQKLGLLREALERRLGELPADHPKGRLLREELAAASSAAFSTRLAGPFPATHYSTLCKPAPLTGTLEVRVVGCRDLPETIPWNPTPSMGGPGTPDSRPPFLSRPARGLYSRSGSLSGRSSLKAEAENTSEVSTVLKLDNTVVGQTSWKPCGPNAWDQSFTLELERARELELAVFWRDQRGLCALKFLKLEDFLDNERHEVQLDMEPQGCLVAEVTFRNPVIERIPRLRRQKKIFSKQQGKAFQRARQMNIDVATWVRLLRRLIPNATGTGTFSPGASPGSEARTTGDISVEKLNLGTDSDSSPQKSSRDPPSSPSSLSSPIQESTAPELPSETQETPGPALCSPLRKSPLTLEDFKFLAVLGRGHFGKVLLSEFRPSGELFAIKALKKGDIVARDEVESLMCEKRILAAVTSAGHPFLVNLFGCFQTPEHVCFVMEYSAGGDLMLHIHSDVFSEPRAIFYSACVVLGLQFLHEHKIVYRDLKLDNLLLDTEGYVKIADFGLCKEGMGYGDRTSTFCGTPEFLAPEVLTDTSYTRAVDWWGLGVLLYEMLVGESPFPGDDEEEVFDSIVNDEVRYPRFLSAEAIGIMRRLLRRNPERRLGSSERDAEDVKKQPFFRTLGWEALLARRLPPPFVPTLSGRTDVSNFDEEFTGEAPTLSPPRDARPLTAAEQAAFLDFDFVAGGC
Text: as §1

[8] = target: 363 human kinases (including Aurora A/B/C) (Homo sapiens, UniProt Q86Y07); conditions: VRK2; for remaining activity at 0.1 µM: 100 nM; for remaining activity at 0.1 µM / remaining activity at 0.5 µM: read-out: % Enzyme Activity (relative to DMSO controls)
363 human kinases (including Aurora A/B/C) (Homo sapiens, UniProt Q86Y07), sequence (Q86Y07 whole entry): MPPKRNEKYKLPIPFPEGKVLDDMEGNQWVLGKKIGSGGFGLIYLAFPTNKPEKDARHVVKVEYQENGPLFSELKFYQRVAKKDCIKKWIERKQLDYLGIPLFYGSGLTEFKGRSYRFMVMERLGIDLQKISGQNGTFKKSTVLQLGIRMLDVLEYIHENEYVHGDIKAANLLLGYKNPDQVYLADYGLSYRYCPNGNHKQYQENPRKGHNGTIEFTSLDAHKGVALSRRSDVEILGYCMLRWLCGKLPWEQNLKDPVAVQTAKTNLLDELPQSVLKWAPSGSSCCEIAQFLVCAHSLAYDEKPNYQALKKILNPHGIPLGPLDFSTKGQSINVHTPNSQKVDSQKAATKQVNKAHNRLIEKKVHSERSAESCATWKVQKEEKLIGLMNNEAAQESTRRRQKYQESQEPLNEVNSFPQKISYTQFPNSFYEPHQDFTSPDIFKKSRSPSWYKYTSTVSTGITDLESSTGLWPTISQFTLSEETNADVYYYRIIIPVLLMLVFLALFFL
Text: as §1

Question: CCn1cc(-c2ccnc3[nH]c(-c4cccc(CN(C)C)c4)cc23)c(-c2ccc(NC(=O)N(C)C)cc2)n1 [GSK1070916] was tested. Which remaining activity at 0.1 µM [1] did it give?
Answer: 90.6%

Question: And the remaining activity at 0.1 µM [2]?
Answer: 84.3%

Question: And the remaining activity at 0.1 µM [3]?
Answer: 121%

Question: And the remaining activity at 0.1 µM [4]?
Answer: 109%

Question: And the remaining activity at 0.1 µM [5]?
Answer: 94.5%

Question: And the remaining activity at 0.1 µM [6]?
Answer: 109%

Question: What about the remaining activity at 0.1 µM [7] of the same molecule?
Answer: 103%

Question: What about the remaining activity at 0.1 µM [8] of the same molecule?
Answer: 106%

Question: How did the “% Enzyme Activity (relative to DMSO controls)” value ([1]; 500 nM) turn out when O=C(c1cccc(Cl)c1F)N1CCN(Cc2cccc(Nc3nccs3)n2)CC1 [MK-8745] was run?
Answer: 81.73%

Question: What about the remaining activity at 0.5 µM ([1]; 500 nM) of the same molecule?
Answer: 81.8%

Question: And the “% Enzyme Activity (relative to DMSO controls)” value ([2]; 500 nM)?
Answer: 90.95%

Question: What about the remaining activity at 0.5 µM ([2]; 500 nM) of the same molecule?
Answer: 91.3%

Question: And the “% Enzyme Activity (relative to DMSO controls)” value ([3]; 500 nM)?
Answer: 108.29%

Question: What about the remaining activity at 0.5 µM ([3]; 500 nM) of the same molecule?
Answer: 109%

Question: And the “% Enzyme Activity (relative to DMSO controls)” value ([4]; 500 nM)?
Answer: 100.59%

Question: And the remaining activity at 0.5 µM ([4]; 500 nM)?
Answer: 102%

Question: What about the “% Enzyme Activity (relative to DMSO controls)” value ([5]; 500 nM) of the same molecule?
Answer: 83.68%

Question: What about the remaining activity at 0.5 µM ([5]; 500 nM) of the same molecule?
Answer: 87.7%

Question: What about the “% Enzyme Activity (relative to DMSO controls)” value ([6]; 500 nM) of the same molecule?
Answer: 99.72%

Question: And the remaining activity at 0.5 µM ([6]; 500 nM)?
Answer: 102%

Question: And the “% Enzyme Activity (relative to DMSO controls)” value ([7]; 500 nM)?
Answer: 94.45%

Question: And the remaining activity at 0.5 µM ([7]; 500 nM)?
Answer: 96.7%

Question: What about the “% Enzyme Activity (relative to DMSO controls)” value ([8]; 500 nM) of the same molecule?
Answer: 103.85%

Question: What about the remaining activity at 0.5 µM ([8]; 500 nM) of the same molecule?
Answer: 107%

Question: With O=C(O)[C@]1(Cc2cccc(Nc3nccs3)n2)CC[C@@H](Oc2cccc(Cl)c2F)CC1 [MK-5108] as the molecule, how does the remaining activity at 0.1 µM [1] read?
Answer: 96.8%

Question: What about the remaining activity at 0.5 µM ([1]; 500 nM) of the same molecule?
Answer: 81.6%

Question: And the remaining activity at 0.1 µM [2]?
Answer: 94%

Question: And the remaining activity at 0.5 µM ([2]; 500 nM)?
Answer: 86.4%

Question: What about the remaining activity at 0.1 µM [3] of the same molecule?
Answer: 92.6%

Question: What about the remaining activity at 0.5 µM ([3]; 500 nM) of the same molecule?
Answer: 86.3%

Question: And the remaining activity at 0.1 µM [4]?
Answer: 88.9%

Question: What about the remaining activity at 0.5 µM ([4]; 500 nM) of the same molecule?
Answer: 107%

Question: And the remaining activity at 0.1 µM [5]?
Answer: 99.6%

Question: What about the remaining activity at 0.5 µM ([5]; 500 nM) of the same molecule?
Answer: 97.4%

Question: And the remaining activity at 0.1 µM [6]?
Answer: 87%

Question: And the remaining activity at 0.5 µM ([6]; 500 nM)?
Answer: 115%

Question: And the remaining activity at 0.1 µM [7]?
Answer: 96%

Question: What about the remaining activity at 0.5 µM ([7]; 500 nM) of the same molecule?
Answer: 115%

Question: What about the remaining activity at 0.1 µM [8] of the same molecule?
Answer: 114%

Question: What about the remaining activity at 0.5 µM ([8]; 500 nM) of the same molecule?
Answer: 91.7%
